{"source": "patent US20030176500A1", "about": "“Medium chain fatty acids applicable as antimicrobial agents” (priority 2000, published 2003)", "system": "E. coli K88", "assay": "Control of E. coli K88 growth in Brain Heart Infusion broth (OD600nm)", "type": "cell-based, Escherichia coli", "conditions": "colistine 12 ppm, sodium salt of MCFA 1200 ppm; for OD600nm: pH 4.0, 37° C., MCFA values higher by intrinsic turbidity", "method": "Three samples of 100 ml of fermentation broth (Brain Heart Infusion) were equally inoculated with an overnight culture of E. coli K88 (pathogen in gastrointestinal tract of piglet) and further incubated at 37° C. The optical density at 600 nm (OD600nm)—which is proportional to the amount of E. coli cells present (FIG. 1)—was measured. As soon as an OD600nm of between 0.2 and 0.5 was obtained,\n(1) nothing was added to the first sample,\n(2) 12 ppm of colistine was added to the second sample and\n(3) 1200 ppm of the sodium salt of MCFA (mixture containing 50% of fatty acid with 8 carbon atoms and 50% of fatty acid with 10 carbon atoms) was added to the third sample.\nThe samples were further incubated at 37° C. for 4 hours at pH 4.0. The OD600nm was measured evey hour. The samples were removed from the incubation after 4 hours, the pH was measured in order to register possible pH changes during incubation."}
{"substance": "colistine", "values": [{"measurement": "OD600nm", "setting": "2 hours after pH setting", "value": 0.420}, {"measurement": "OD600nm", "setting": "3 hours after pH setting", "value": 0.449}, {"measurement": "OD600nm", "setting": "4 hours after pH setting", "value": 0.455}, {"measurement": "Difference in OD600nm", "setting": "between 2 and 4 hours", "value": 0.035}, {"measurement": "Growth %", "setting": "blank = 100", "value": 44, "unit": "%"}, {"measurement": "growth of E. coli retarded", "setting": "pH 4.0", "value": 56, "unit": "%"}]}
